“And” between values parts separate entries of the source, which are not always exact repeats. Equal entries are not always repeated. Marks after values point to notes of the source that are not given here.
Experiments:
[1] = test system: acid accumulation in the hind gut; assay: Acidic gut syndrome in pigs fed HGF diet: digesta/faecal pH and faecal consistency; type: in vivo, pig
From the text: Pigs were weaned at 4 weeks of age and housed individually in pens with concrete floors with weld mesh dividing walls in temperature controlled facilities. The pens were cleaned twice per day and drinking water was provided by an automatic watering system. All animals were handled daily to acclimatise them to experimental procedures associated with sampling.
Piglets were fed ad libitum on the basal diet for two weeks until commencement of dietary treatments. The diets were formulated to ensure balanced provisions of nutrients for growth and contained 67.5% carbohydrate (rice, cornflour and raftilose) and 32.5% protein mix. The protein mix contained 55% meat meal, 32% fishmeal, 6% casein and 6% vitamins, oil and synthetic amino acids. The proportion of total carbohydrates contributed by rice, corn flour and raftilose on each day of the study is shown in Table 1 together with the total amount offered per pig.
1. Daily collection of faeces from the pens of each pig to assess faecal consistency and for measurement of pH. Faecal consistency was assessed on a scale 1 to 5 with 1 being liquid diarrhoea and 5 being dry, separate, well formed faeces.
(§1) 7. On day 7, half of the pigs in each treatment group were euthanased with pentobarbitone. Post mortem measurements were made of size of the digestive tract, the pH of diqesta in different part of the tract and the digestive tract and other organs were examined for any sign of abnormal tissue appearance. On day 8 the remaining pigs were euthanased and the same post mortem measurements made on these animals.

[2] = test system: fermentative acidosis in the rumen and hind gut; assay: Sheep overfed high-barley pellets: rumen and faecal pH, lactate, rumen VFA; type: in vivo
From the text: (§2) Six full mouth cannulated cross-bred sheep, weighing approximately 45 kg were used in the trial. These sheep were housed in individual pens on a wood grating floor in an enclosed animal house. All sheep were fed once per day, and water was available at all times ad libitum. All sheep were fed a basal diet consisting of oaten chaff plus 1% urea and 1% mineral pre-mix (Pfizer Animal Health Pty. Ltd.). At time 0 in the experiment, all sheep were fed a pellet containing high levels of barley with or without virginiamycin (VM). The sheep were autopsied 48 hours after grain feeding.
(§3) All sheep were offered 1000 g of a pellet containing 76% barley, 17% lucerne, 3.5% cottonseed meal, 1% urea and 1.5% limestone at the start of the experiment. The sheep were then offered another 1000 g of the pellet 12 hours later. All sheep consumed all of the pelleted feed offered. Half of the sheep received the pellets with no dietary additives, and the other half received the pellets with virginiamycin (VM) added at 30 mg/kg. Eskalin (Pfizer Animal Health Pty. Ltd., 20 g virginiamycin/kg) was included at 1.5 g/kg pellets to provide 30 mg VM/kg in the mixed diet. The animals were monitored closely after receiving grain and autopsied 48 hours after initial grain feeding.
(§4) All sheep were fitted with faecal collection bags, which consisted of a PVC ring attached to the posterior of the sheep to which a plastic bag was attached in order to collect total faecal output. Rumen fluid was taken via the rumen fistula. Rumen and faecal samples were taken at 4 hourly intervals for the first 12 hours after grain feeding. Samples were then taken at 24, 36 and 48 hours after initial feeding.
Rumen fluid pH was analysed immediately using a portable pH meter (‘Piccolo 2’ ATC pH meter by Hanna Instruments). A sample was also added to a 20 mL McCartney bottle containing approximately 7 μL of concentrated H2SO4, and frozen for later analysis of lactic and volatile fatty acids.
(§5) A representative 20 g sample of faeces was taken into a small vial, an equal volume of water added and mixed well. The faecal pH was then measured immediately on this sample as for rumen fluid. A further sample was placed in a sterile container and an equal weight of deionised water added to it. This was mixed well using a sterile spatula, and then centrifuged at 15000 rpm for 20 mins. The supernatant was then transferred using a sterile pipette to 3 individual microfuge tubes and frozen for later analysis for TNF-α. TNF-α was measured in the faeces using an ELISA method.

Caecal Strep. Bovis = assay: Pigs fed HGF diet: caecal Strep. bovis count; type: in vivo, Streptococcus bovis; conditions: HGF diet with 25 mg virginiamycin/kg DM
From the text: (§6) Studies of rapid carbohydrate fermentation and acid build up in the hind gut of sheep and horses have shown that the concentration of volatile fatty acids (VFA) starts to increase and pH starts to drop before there is a proliferation of gram positive bacteria (particularly Streptococcus bovis and Lactobacilli) capable of producing lactic-acid. Lactic acid is a stronger acid than the VFA and is not absorbed from the caecum as quickly as VFA, and this combination of factors leads to low pH which is the first step in development of acidic gut syndrome. Virginiamycin was included in the diet of one of the two dietary treatments containing raftilose and high-maize starch to investigate its effectiveness in controlling lactic acid accumulation and hind gut pH as a potential method for preventing or controlling acidic gut syndrome.
as §1

Caecal Lactobacilli = assay: Pigs fed HGF diet: caecal Lactobacilli count; type: in vivo; conditions: HGF diet with 25 mg virginiamycin/kg DM
From the text: as §6, §1

[3] = test system: immune system (neutrophils, lymphocytes, acute phase protein, IL-1); assay: Pigs fed HGF diet: changes in immune system (white blood cells, acute phase protein, IL-1); type: in vivo, pig; conditions: HGF diet with 25 mg virginiamycin/kg DM
[4] = Pigs fed HGF diet: feed intake, weight change, weight of washed gut; type: in vivo, pig
Experimental: 3. Body weights were measured 2 days before the start of feeding experimental diets, on day 3 and day 7.
5. The amount of feed not consumed was measured each afternoon and intake calculated as a % of amount offered.
as §1

[5] = test system: acid accumulation in the hind gut; assay: Acidic gut syndrome in pigs fed HGF diet: digesta/faecal pH and faecal consistency; type: in vivo, pig; conditions: HGF diet with 25 mg virginiamycin/kg DM, post mortem
TNF-α = assay: Sheep overfed high-barley pellets: faecal TNF-α by ELISA; type: in vivo; conditions: VM 30 mg/kg pellets; for Faecal TNF-α concentration, individual sheep: sheep 2, 4, 6, listed as VM
From the text: as §2, §3, §4, §5

[6] = pigs on HGF diet, 25 mg virginiamycin/kg DM
[7] = weaner pigs, HGF diet with 25 mg virginiamycin/kg dietary DM, post mortem
[8] = proportion mmol/100 mmol, sheep, VM 30 mg/kg
[9] = sheep fed high grain pellets, VM 30 mg/kg
[10] = sheep overfed grain, VM 30 mg/kg pellets
[11] = sheep overfed grain, VM 30 mg/kg, 36 and 48 hour samples
[12] = sheep, VM 30 mg/kg versus no additive
[13] = pigs, post mortem, HGF diet with 25 mg virginiamycin/kg DM

virginiamycin
pH in different parts of the digestive tract (FIG. 6, words) ([1]; pigs fed HGF diet with or without virginiamycin): consistent effect in reducing acid accumulation (increasing pH) in all parts of the digestive tract
Acid accumulation in the hind gut and in faeces [1, 6]: effective in reducing the extent of acid accumulation
Effect on faecal consistency [1, 6]: significantly improved faecal consistency
Ileal pH ([1]; pigs, HGF diet with 25 mg virginiamycin/kg DM, post mortem): 6.3
Faecal consistency (av d1-5) ([1]; scale 1 to 5, 1 liquid diarrhoea, 5 dry well formed faeces, pigs, HGF diet with 25 mg virginiamycin/kg DM): 3.53^c
Average faecal pH ([1]; weaner pigs, HGF diet with 25 mg virginiamycin/kg DM): 6.0^b
Faecal pH (day 2) ([1]; weaner pigs, HGF diet with 25 mg virginiamycin/kg DM, day 2): 6.3^b
Faecal pH (day 5) ([1]; weaner pigs, HGF diet with 25 mg virginiamycin/kg DM, day 5): 6.0^b
Caecal pH [1, 7]: 5.7^ab
Rectal pH [1, 7]: 6.3^b
Rumen Ac (%) [2, 8]: 50.941%
Rumen But (%) [2, 8]: 8.75%
Rumen Pr (%) [2, 8]: 34.36%
Ratio of Propionate to Acetate+(2×Butyrate) ([2]; rumen, sheep fed VM versus no additive): significantly higher
Rumen D-Lactic acid [2, 9]: 25.12 mmol/L
Rumen L-Lactic acid [2, 9]: 7.33 mmol/L
Rumen total VFA [2, 9]: 81.80 mmol/L
Average faecal pH [2, 10]: 7.28
Average rumen pH [2, 10]: 5.84
Faecal D-lactate [2, 11]: 7.43
Faecal L-lactate [2, 11]: 28.2
Difference in rumen or faecal pH between treatment groups [2, 12]: no differences
Treatment effect on rumen lactic acid concentration [2, 12]: No treatment effects
pH in different parts of the digestive tract (FIG. 8, words) ([2]; sheep, high-barley pellets with or without virginiamycin, autopsy at 48 hours): consistent effect in reducing acid accumulation (increasing pH) in all parts of the digestive tract
Caecal Strep. Bovis (Caecal Strep. Bovis): 3.2 × 10^9
Caecal Lactobacilli (Caecal Lactobacilli): 1.4 × 10^10
Acute phase protein CD3 [3]: 5.9
IL-1 (av. days 1, 2, 5 & 8) [3]: 1.6
IL-1 (day 5) ([3]; day 5): 2.0
Lymphocytes (L) ([3]; jugular blood): 11.0
N:L ratio ([3]; neutrophil to lymphocyte ratio): 0.57a
Feed intake versus HGF diet alone ([4]; pigs on HGF diet treated with virginiamycin): higher intake
Weight change (days 3 to 7) ([4]; pigs, HGF diet with 25 mg virginiamycin/kg DM): 1.13
Intake (% offered) (day 4) ([4]; pigs, HGF diet with 25 mg virginiamycin/kg DM, day 4): 81^ab % offered
Av intake (days 1 to 8) ([4]; pigs, HGF diet with 25 mg virginiamycin/kg DM, intake calculated as % of amount offered): 83^ab
Weight of washed gut (g): Caecum [4, 13]: 31.4^a g
Weight of washed gut (g): Rectum [4, 13]: 35.1 g
Weight of washed gut (g): Stomach [4, 13]: 115 g
Stomach pH (days 8/9) [5]: 3.6
Faecal TNF-α concentration, group average (TNF-α; experimental hour 0): 12333
Faecal TNF-α concentration, individual sheep (TNF-α; experimental hour 0): 9000 and 16000 and 12000
Faecal TNF-α concentration, group average (TNF-α; experimental hour 24): 17667
Faecal TNF-α concentration, individual sheep (TNF-α; experimental hour 24): 12000 and 24000 and 17000
Faecal TNF-α concentration, group average (TNF-α; experimental hour 36): 62444
Faecal TNF-α concentration, individual sheep (TNF-α; experimental hour 36): 98333 and 64000 and 25000
Faecal TNF-α concentration, group average (TNF-α; experimental hour 48): 124222
Faecal TNF-α concentration, individual sheep (TNF-α; experimental hour 48): 230667 and 66000 and 76000

From US6468964B1, “Control of acidic gut syndrome” (University of New England, of Armidale, priority 1997, dated 2002)
